The test has as its target T1, human GABAA ρ2 receptor (homomeric) (Homo sapiens, UniProt P28476).
T1 construct: gene GABRR2; full-length homomeric pentamer; cRNA from pGEMHE vector injected into Xenopus laevis oocytes
Kind of test: two-electrode voltage clamp, Xenopus oocytes. It is filed as cell-based. In general terms: In two-electrode clamp one electrode senses voltage and the other passes current.

SMILES strings stand for the structures.

T1 sequence (P28476 21-465): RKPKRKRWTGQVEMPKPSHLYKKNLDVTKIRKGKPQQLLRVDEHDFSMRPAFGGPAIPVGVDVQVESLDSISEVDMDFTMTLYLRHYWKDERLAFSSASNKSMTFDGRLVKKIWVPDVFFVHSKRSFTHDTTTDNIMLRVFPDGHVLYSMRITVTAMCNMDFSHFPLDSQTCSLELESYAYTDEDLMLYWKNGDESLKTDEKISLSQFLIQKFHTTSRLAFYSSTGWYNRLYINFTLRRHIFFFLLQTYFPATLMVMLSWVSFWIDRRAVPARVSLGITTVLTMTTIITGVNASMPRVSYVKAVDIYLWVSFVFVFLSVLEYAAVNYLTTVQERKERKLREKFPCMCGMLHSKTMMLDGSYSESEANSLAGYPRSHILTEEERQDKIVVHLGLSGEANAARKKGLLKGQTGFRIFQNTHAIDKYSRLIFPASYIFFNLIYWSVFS

As a reminder, the EC50 is the concentration giving half of the maximal effect. In the case of `NCCCC(=O)O` [GABA], the response was half-maximal at 891 nM (EC50). In other words, the sub-micromolar range.
